A value given as a limit tells only on which side of the number the result lay.

One data set deals with HRV-89. Put plainly: Rhinovirus cytopathic effect reduction in HeLa-Ohio cells (MTT test). It counts as cell-based. To be noted: HRV-89, HeLa-Ohio cells. On the technique in general: Cytopathic effects are the visible damage that an infection or toxin causes in cultured cells.
Data set [1] concerns Polio 1 (Brunhilde strain). Format: cell-based. The following applies: Polio 1, plaque reduction.
Another data set relates to HRV-29. In words: Rhinovirus cytopathic effect reduction in HeLa-Ohio cells (MTT test). Format: cell-based. The following applies: HRV-29, HeLa-Ohio cells.
For the next data set, the system named is HEp2 cells. Put plainly: Cytotoxicity, HEp2 cell proliferation (microscopy, MTT test). It counts as cell-based. To be noted: 48-72 h incubation at 37° C. As to the method:
(§1) The cytotoxicity of each substance was determined by direct observation under microscope, and mitochondrial dehydrogenases activities were assayed according to the MTT test (F. Denizot et al., Immunol. Methods, 1986, 89, 271).
(§2) The concentration of compound which, after 48-72 h of incubation at 37° C., inhibited by 50% the cell proliferation was defined as cytotoxic dose 50% (CD50).
(In general: Tetrazolium assays rely on reduction of a dye to a coloured formazan, in cell work by metabolically active cells.)

The subject of a further data set is HRV-1B. In words: Rhinovirus cytopathic effect reduction in HeLa-Ohio cells (MTT test). It counts as cell-based.
Data set [2] relates to Measles (Edmonston strain). In words: Antiviral activity, direct inhibition of plaque number. It counts as cell-based. The following applies: Measles morbillivirus, read-out: Concentration inhibiting by 100% viral replication.
Another data set relates to ECHO 9 (ATCC: VR-133). Described as above. It counts as cell-based. The following applies: ECHO 9, plaque reduction; read-out: Concentration inhibiting by 100% viral replication.
The subject of a further data set is HRV-15. In words: Rhinovirus cytopathic effect reduction in HeLa-Ohio cells (MTT test). It counts as cell-based. To be noted: HRV-15, HeLa-Ohio cells.
For the next data set, the system named is HRV-70. Described as above. Format: cell-based. To be noted: Enterovirus, HRV70; HRV-70, HeLa-Ohio cells; read-out: Concentration inhibiting by 100% viral replication.
In another data set the test system is HRV-2. The data set is described as above. It counts as cell-based. The following applies: HRV-2, HeLa-Ohio cells.
Data set [3] concerns Coxsackie B1 (ATCC: VR-28). Put plainly: Antiviral activity, direct inhibition of plaque number. Format: cell-based. To be noted: Coxsackie B1, plaque reduction; read-out: Concentration inhibiting by 100% viral replication.
In another data set the test system is HRV-86. Put plainly: Rhinovirus cytopathic effect reduction in HeLa-Ohio cells (MTT test). Format: cell-based. To be noted: Enterovirus, HRV86; HRV-86, HeLa-Ohio cells; read-out: Concentration inhibiting by 100% viral replication.
The subject of the next data set is HeLa cells. In words: Cytotoxicity, HeLa cell proliferation (microscopy, MTT test). Format: cell-based. The following applies: 48-72 h incubation at 37° C. The procedure:
as §1, §2

Another data set relates to HRV-9. In words: Rhinovirus cytopathic effect reduction in HeLa-Ohio cells (MTT test). It counts as cell-based. The following applies: HRV-9, HeLa-Ohio cells.
The next data set deals with HRV-14. Put plainly: Rhinovirus cytopathic effect reduction in HeLa-Ohio cells (MTT test). Format: cell-based. The following applies: HRV-14, HeLa-Ohio cells.

For the compound `CSc1noc(-c2ccc(OCCc3ccccc3)cc2)c1C#N` [ON-6, 3-Methylthio-5-[4-(2-phenyl-1-ethoxy)-phenyl]-4-isoxazolecarbonitrile], the “Concentration inhibiting by 100% viral replication” value worked out at 2 µM with HRV-89; 0.2 µM in data set [1]; 2 µM in the data set on HRV-29; 5 µM in the data set on HRV-1B; 6 µM in the data set on HRV-15; 4 µM with HRV-2. For the same compound, the “Concentration inhibiting by 100% viral replication” value in the data set with HRV-9 is 8 µM. For the same compound, the “Concentration inhibiting by 50% HEp2 cell proliferation: CD50” value with HEp2 cells was more than 20 µM. The IC100 in data set [2] stood at 1 µM; in the data set on ECHO 9 (ATCC: VR-133), 0.2 µM; in the data set on HRV-70, 10 µM; in data set [3], 10 µM; with HRV-86 it was 6 µM. The “Concentration inhibiting by 50% HeLa cell proliferation: CD50” value with HeLa cells is more than 20 µM.

One may read the melting point as the temperature, or range, at which the solid turns liquid. In the case of `CSc1noc(-c2ccc(OCCCc3ccccc3)cc2)c1C#N` [ON-7, 3-Methylthio-5-[4-(3-phenyl-1-propoxy)-phenyl]-4-isoxazolecarbonitrile], the melting point is 99 to 100 °C. Moreover, the “Concentration inhibiting by 100% viral replication” value with HRV-89 came out at 5 µM. Further, the “Concentration inhibiting by 100% viral replication” value in data set [1] was determined as 0.4 µM. In the data set on HRV-29, the “Concentration inhibiting by 100% viral replication” value is 5 µM. Moreover, the “Concentration inhibiting by 50% HEp2 cell proliferation: CD50” value in the data set with HEp2 cells is more than 25 µM. For the same compound, the “Concentration inhibiting by 100% viral replication” value with HRV-1B was 5 µM. Besides, the IC100 in [2] came to 10 µM. The IC100 in the data set on ECHO 9 (ATCC: VR-133) came to 0.2 µM. The IC100 in the data set on HRV-70 is 5 µM. Further, the IC100 in [3] was 0.6 µM. The IC100 in the data set on HRV-86 was 5 µM. In addition, the “Concentration inhibiting by 50% HeLa cell proliferation: CD50” value in the data set with HeLa cells was more than 25 µM.

`CSc1noc(-c2ccc(OCCOc3ccccc3)cc2)c1C#N` [ON-8, 3-Methylthio-5-[4-(2-phenoxy-1-ethoxy)-phenyl]-4-isoxazolecarbonitrile]: the melting point lay in the range of 128 to 131 °C. Further, the “Concentration inhibiting by 100% viral replication” value in the data set with HRV-89 was 5 µM. In addition, the “Concentration inhibiting by 100% viral replication” value in data set [1] was 10 µM. Moreover, the “Concentration inhibiting by 50% HEp2 cell proliferation: CD50” value in the data set with HEp2 cells is more than 25 µM. The “Concentration inhibiting by 100% viral replication” value in the data set on HRV-1B is 5 µM. Also, the IC100 with ECHO 9 (ATCC: VR-133) came to 0.2 µM. Also, in the data set with HRV-70, the IC100 was found to be 5 µM. For the same compound, the IC100 in data set [3] was found to be 10 µM. Moreover, the IC100 in the data set with HRV-86 is 5 µM. The “Concentration inhibiting by 50% HeLa cell proliferation: CD50” value with HeLa cells was more than 25 µM.

`CSc1noc(-c2ccc(OCCCOc3ccccc3)cc2)c1C#N` [ON-9, 3-Methylthio-5-[4-(3-phenoxy-1-propoxy)-phenyl]-4-isoxazolecarbonitrile] registered a melting point of 121 to 123 °C. In addition, in the data set on HRV-89, the “Concentration inhibiting by 100% viral replication” value stood at 5 µM. In addition, the “Concentration inhibiting by 50% HEp2 cell proliferation: CD50” value in the data set with HEp2 cells was 20 µM. Also, the “Concentration inhibiting by 100% viral replication” value in the data set on HRV-1B is 10 µM. Also, the IC100 in [2] came to 10 µM. Further, the IC100 in the data set on ECHO 9 (ATCC: VR-133) worked out at 0.1 µM. For the same compound, the IC100 in the data set with HRV-70 was 5 µM. The IC100 in [3] came out at 1 µM. Also, the IC100 in the data set on HRV-86 came out at 5 µM. For the same compound, in the data set on HeLa cells, the “Concentration inhibiting by 50% HeLa cell proliferation: CD50” value turned out to be 20 µM.

For the compound `CSc1noc(-c2ccc(OCCCCOc3ccccc3)cc2)c1C#N` [ON-10, 3-Methylthio-5-[4-(4-phenoxy-1-butoxy)-phenyl]-4-isoxazolecarbonitrile], the melting point was in the range of 113 to 114 °C. The “Concentration inhibiting by 100% viral replication” value in the data set on HRV-89 is 1 µM. In addition, in the data set on HRV-14, the “Concentration inhibiting by 100% viral replication” value turned out to be 1 µM. Besides, the “Concentration inhibiting by 100% viral replication” value with HRV-29 stood at 1 µM. The “Concentration inhibiting by 50% HEp2 cell proliferation: CD50” value with HEp2 cells is 10 µM. The “Concentration inhibiting by 100% viral replication” value in the data set on HRV-1B came out at 2 µM. Also, the IC100 in data set [2] was 0.02 µM. For the same compound, the IC100 in the data set on ECHO 9 (ATCC: VR-133) is 1 µM. The IC100 with HRV-70 stood at 1 µM. Also, the IC100 in data set [3] stood at 0.02 µM. Also, the IC100 in the data set with HRV-86 turned out to be 1 µM. Moreover, in the data set with HeLa cells, the “Concentration inhibiting by 50% HeLa cell proliferation: CD50” value came to 10 µM.

`CSc1noc(-c2ccc(OCCOc3ccc([N+](=O)[O-])cc3)cc2)c1C#N` [ON-11, 3-Methylthio-5-[4-[2-(4-nitrophenoxy)ethoxy]phenyl]-4-isoxazolecarbonitrile] yielded a melting point of 170 to 171 °C. Further, the “Concentration inhibiting by 50% HEp2 cell proliferation: CD50” value with HEp2 cells amounted to 25 µM. In data set [2], the IC100 was determined as 10 µM. In the data set with ECHO 9 (ATCC: VR-133), the IC100 is 4 µM. Also, the IC100 in the data set with HRV-70 is 8 µM. In data set [3], the IC100 was determined as 10 µM. In addition, in the data set with HRV-86, the IC100 turned out to be 2 µM. Besides, the “Concentration inhibiting by 50% HeLa cell proliferation: CD50” value with HeLa cells came to 10 µM.

The compound `CSc1noc(-c2ccc(OCCOc3ccc(C)cc3)cc2)c1C#N` [ON-12, 3-Methylthio-5-[4-[2-(4-methylphenoxy)ethoxy]phenyl]-4-isoxazolecarbonitrile] registered a melting point of 139 to 140 °C. In addition, the “Concentration inhibiting by 100% viral replication” value in the data set on HRV-89 worked out at 5 µM. For the same compound, in [1], the “Concentration inhibiting by 100% viral replication” value turned out to be 1 µM. Moreover, in the data set on HEp2 cells, the “Concentration inhibiting by 50% HEp2 cell proliferation: CD50” value was more than 25 µM. The IC100 in [2] worked out at 10 µM. Further, the IC100 in the data set on ECHO 9 (ATCC: VR-133) turned out to be 0.06 µM. For the same compound, the IC100 in the data set with HRV-70 came to 5 µM. Besides, in [3], the IC100 was 10 µM. For the same compound, the IC100 in the data set with HRV-86 was found to be 5 µM. Further, the “Concentration inhibiting by 50% HeLa cell proliferation: CD50” value in the data set with HeLa cells was more than 25 µM.

As for `CCOC(=O)c1ccc(OCCOc2ccc(-c3onc(SC)c3C#N)cc2)cc1` [ON-13, Ethyl-4-[[2-[4-(3-methylthio-4-cyano-5-isoxazolyl)-phenoxy]-ethyl]-oxy]benzoate], the melting point was in the range of 162 to 164 °C. For the same compound, the “Concentration inhibiting by 100% viral replication” value in data set [1] was found to be 10 µM. Besides, the “Concentration inhibiting by 100% viral replication” value in the data set on HRV-14 was 2 µM. Besides, the “Concentration inhibiting by 50% HEp2 cell proliferation: CD50” value in the data set on HEp2 cells stood at 25 µM. The IC100 in data set [2] came to 0.2 µM. For the same compound, the IC100 in the data set on HRV-70 stood at 1 µM. The IC100 in data set [3] came out at 0.1 µM. Also, the IC100 with HRV-86 was 1 µM. The “Concentration inhibiting by 50% HeLa cell proliferation: CD50” value with HeLa cells was found to be 10 µM.

Compound `CSc1noc(-c2ccc(OCCOc3ccc(Br)cc3)cc2)c1C#N` [ON-14, 3-Methylthio-5-[4-[2-(4-bromophenoxy)ethoxy]phenyl]-4-isoxazolecarbonitrile] had a melting point of 156 to 157 °C. Also, in the data set with HRV-89, the “Concentration inhibiting by 100% viral replication” value amounted to 2 µM. Besides, the “Concentration inhibiting by 100% viral replication” value in data set [1] stood at 1 µM. Further, the “Concentration inhibiting by 100% viral replication” value in the data set on HRV-14 amounted to 2 µM. In addition, in the data set on HEp2 cells, the “Concentration inhibiting by 50% HEp2 cell proliferation: CD50” value is more than 25 µM. In addition, in data set [2], the IC100 was found to be 0.2 µM. The IC100 in the data set on ECHO 9 (ATCC: VR-133) stood at 0.06 µM. Moreover, the IC100 in the data set with HRV-70 amounted to 2 µM. Further, in data set [3], the IC100 was determined as 0.06 µM. In the data set with HRV-86, the IC100 turned out to be 2 µM. Besides, the “Concentration inhibiting by 50% HeLa cell proliferation: CD50” value in the data set with HeLa cells is 10 µM.

Values taken from patent US6414004B1 (priority 1998, dated 2002).
